Each structure is given as a SMILES string. Structures can show the parent of a compound that is named as a salt. Where two headings read alike, the source gives them in different places.

Data on nine compounds can be found in article PMC9293070, “Bioisosteric Modification of To042: Synthesis and Evaluation of Promising Use‐Dependent Inhibitors of Voltage‐Gated Sodium Channels” (Chemmedchem, 2021).

Data set [1] can be described thus: Apparent permeability across Caco-2 monolayer (BA and AB). It is filed as in vitro ADME. As to conditions: human, 120 min, HBSS pH 7.4; for Papp A→B at 120 min, 100 µM: Apical-to-Basolateral; for Papp B→A at 120 min, 100 µM: Basolateral-to-Apical. As for the experimental part: (§1) Permeability experiments. Details for permeability experiments. Preparation of Caco‐2 monolayer. This procedure has been previously reported by Colabufo et al.[65] Briefly, Caco‐2 cells were harvested with trypsin‐EDTA and seeded onto MultiScreen Caco‐2 assay system at a density of 10,000 cells per well. The culture medium was replaced every 48 h for the first 6 days and every 24 h thereafter. After 21 days in culture, the Caco‐2 monolayer was utilized for the permeability experiments. The Trans Epithelial Electrical Resistance (TEER) of the monolayers was measured daily before and after the experiment using an epithelial voltohmmeter (Millicell®‐ERS; Millipore, Billerica, MA). […] Drug transport experiment. […] Drugs were dissolved in Hanks’ balanced salt solution (HBSS, pH 7.4) and sterile filtered. After 21 days of cell growth, the medium was removed from filter wells and from the receiver plate. The wells were filled with 75 μL of fresh HBSS buffer and the receiver plate with 250 μL per well of the same buffer. This procedure was repeated twice, and the plates were incubated at 37 °C for 30 min. After incubation, the HBSS buffer was removed and drug solutions added to the filter well (75 μL). HBSS without the drug was added to the receiver plate (250 μL). The plates were incubated at 37 °C for 120 min. After incubation, samples were removed from the apical (filter well) and basolateral (receiver plate) sides of the monolayer and stored at −20 °C up to analysis. Compounds were lyophilized at −52 °C and 0.06 bars for 24 h and desalted by adding 500 μL of CH3CN (in order to remove phosphate salts coming from HBSS), then 500 μL of Ammonium Acetate (50 mM, pH 5) were added. The resulting solutions were analyzed by ESI‐MS in order to determine the concentration of drug in the samples. The concentration of tested compounds was measured using UV spectroscopy. The apparent permeability (P app), in units of nm per second, was calculated using the following equation: […]
(§2) where V A is the volume (in mL) in the acceptor well; Area is the surface area of the membrane (0.11 cm^2 of the well); time is the total transport time in seconds (7200 s); [drug]acceptor is the concentration of the drug measured by ESI‐MS analyses or UV spectroscopy; [drug]initial is the initial drug concentration (1 ⋅ 10^−4 M) in the apical or basolateral wells.

A further data set relates to P-gp. The data set is described as above. It is filed as in vitro ADME. As to conditions: human, pH 7.4; ratio of Papp BA to Papp AB. As for the experimental part:
as §1, §2

The target of data set [2] is T1, hNav1.4 (Homo sapiens, UniProt P35499). Kind of data set: Patch-clamp block of hNav1.4 sodium currents in HEK293T cells. It is filed as cell-based. As to conditions: for IC50: HEK293T cells, value ± standard error of the fit; for TB/PB (ratio IC50 tonic block/IC50 phasic block): use-dependence. The protocol: Patch clamp experiments. Exploratory compounds were tested on sodium currents recorded in HEK293T cells (human embryonic kidney cell line) permanently expressing the wild‐type human Nav1.4 sodium channel, as previously described.[14, 61] Whole‐cell sodium currents were recorded at room temperature (∼22 °C) using Axon hardware and software (Axon Instruments Inc., Union City, CA, USA). Bath solution contained (mM): 150 NaCl, 4 KCl, 2 CaCl2, 1 MgCl2, 5 HEPES and 5 glucose (pH 7.4). Pipette solution contained (mM): 120 CsF, 10 CsCl, 10 NaCl, 5 EGTA, and 5 HEPES (pH 7.2). Pipette resistance was […]. Stabilization of the whole‐cell configuration was allowed for 5 minutes before to record sodium currents elicited from a holding potential of −120 mV using 25 ms‐long test pulses at −30 mV applied every 10 or 0.1 sec (0.1 and 10 Hz frequencies). The patched cell was continuously perfused by control or drug‐supplemented bath solution. To limit errors due to rundown and voltage‐dependence shifts, no more than two drug concentrations were tested on each cell. The I DRUG/I CTRL ratio (mean±S.E.M. from at least 3 cells) was plotted against drug concentration.
T1 sequence (P35499 whole entry): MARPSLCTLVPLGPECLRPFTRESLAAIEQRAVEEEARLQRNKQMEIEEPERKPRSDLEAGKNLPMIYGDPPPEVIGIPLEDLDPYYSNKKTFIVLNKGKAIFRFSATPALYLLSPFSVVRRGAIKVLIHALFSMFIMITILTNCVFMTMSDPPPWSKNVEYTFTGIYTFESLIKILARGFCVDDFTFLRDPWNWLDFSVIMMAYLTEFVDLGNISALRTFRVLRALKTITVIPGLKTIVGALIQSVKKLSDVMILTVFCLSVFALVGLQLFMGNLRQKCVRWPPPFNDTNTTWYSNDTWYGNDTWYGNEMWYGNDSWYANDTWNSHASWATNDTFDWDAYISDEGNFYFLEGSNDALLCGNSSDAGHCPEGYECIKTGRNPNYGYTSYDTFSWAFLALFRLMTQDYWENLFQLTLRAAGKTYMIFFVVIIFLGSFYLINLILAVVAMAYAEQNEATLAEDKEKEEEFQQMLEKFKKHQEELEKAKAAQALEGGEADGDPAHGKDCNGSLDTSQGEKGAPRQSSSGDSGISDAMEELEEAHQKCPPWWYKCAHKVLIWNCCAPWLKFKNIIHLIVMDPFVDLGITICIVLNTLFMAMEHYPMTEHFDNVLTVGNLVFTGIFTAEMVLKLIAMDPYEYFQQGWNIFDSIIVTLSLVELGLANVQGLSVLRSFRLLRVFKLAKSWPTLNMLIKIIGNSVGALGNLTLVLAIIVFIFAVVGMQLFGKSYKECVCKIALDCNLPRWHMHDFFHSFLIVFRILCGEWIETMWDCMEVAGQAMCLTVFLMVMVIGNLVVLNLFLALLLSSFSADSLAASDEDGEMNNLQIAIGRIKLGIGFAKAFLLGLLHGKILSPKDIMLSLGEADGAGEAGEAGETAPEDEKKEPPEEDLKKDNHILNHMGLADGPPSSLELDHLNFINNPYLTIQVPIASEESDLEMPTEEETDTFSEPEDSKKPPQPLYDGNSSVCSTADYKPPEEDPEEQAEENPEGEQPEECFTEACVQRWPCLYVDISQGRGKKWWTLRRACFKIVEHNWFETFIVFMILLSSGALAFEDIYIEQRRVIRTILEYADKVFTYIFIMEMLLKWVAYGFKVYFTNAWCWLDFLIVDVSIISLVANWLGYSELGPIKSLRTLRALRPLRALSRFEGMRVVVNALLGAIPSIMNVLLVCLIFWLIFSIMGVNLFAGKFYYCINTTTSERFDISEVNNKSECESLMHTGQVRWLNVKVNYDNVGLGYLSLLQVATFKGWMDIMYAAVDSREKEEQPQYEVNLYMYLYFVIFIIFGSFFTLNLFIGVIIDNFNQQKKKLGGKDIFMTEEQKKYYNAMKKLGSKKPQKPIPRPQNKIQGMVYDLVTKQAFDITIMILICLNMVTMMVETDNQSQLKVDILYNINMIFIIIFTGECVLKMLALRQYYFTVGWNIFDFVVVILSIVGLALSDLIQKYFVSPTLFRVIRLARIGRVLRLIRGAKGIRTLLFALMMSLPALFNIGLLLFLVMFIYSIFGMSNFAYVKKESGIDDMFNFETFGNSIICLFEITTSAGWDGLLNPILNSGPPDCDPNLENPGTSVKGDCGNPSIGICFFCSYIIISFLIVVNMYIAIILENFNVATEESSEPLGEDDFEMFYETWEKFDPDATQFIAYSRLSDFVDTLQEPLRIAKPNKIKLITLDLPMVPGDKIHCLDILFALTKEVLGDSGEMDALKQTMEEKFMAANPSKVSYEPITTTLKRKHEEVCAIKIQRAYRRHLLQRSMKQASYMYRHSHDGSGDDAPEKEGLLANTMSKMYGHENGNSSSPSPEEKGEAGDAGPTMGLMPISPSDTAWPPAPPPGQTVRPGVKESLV
The half‐maximum inhibitory concentration (IC50) and slope factor (nH) are given with the standard error of the fit.

Data set [3] concerns the target T1, hNav1.4. The conditions noted are these: cited from earlier work.
For data set [4], the system named is HeLa cells. Briefly: ROS production by DCF staining, flow cytometry. It is filed as cell-based, human. The protocol: (§3) Cell culture. Cervical cancer cell lines (HeLa) were cultured in Dulbecco's modified eagle medium (DMEM) supplemented with 10 % fetal bovine serum (FBS), 1 % glutamine, and 1 % penicillin/streptomycin (all purchased from Euroclone, Italy) in a humidified incubator at 37 °C and 5 % CO2 and 95 % relative humidity.
(§4) Flow cytometry analysis. In order to detect ROS production after drugs treatment,[66, 67] cells at 3×10^5 cells were seeded in 6‐well plates in DMEM with 10 % FBS and cultured overnight. The following day, cells were washed twice with PBS and kept in DMEM without FBS for 2 h. […] Antibiotics were omitted during pharmacological compound assays. After incubation period, cells were washed twice with HBSS, and stained with 5 μM of 2′,7′‐dichorofluorescein (DCFA‐DA) and dihydrorhodamine (DHR) (Thermo Fischer Scientific, Italy) for 30 min in dark. After washing, cells were resuspended in HBSS and analyzed using an Attune Acoustic Focusing Cytometer (Thermo Fisher Scientific) equipped with a 488 nm laser. Thereafter, DCFA‐DA stained cells were co‐stained with 1 μg/mL of 7‐aminoactinomycin D (7‐AAD) (Thermo Fischer Scientific, Italy), incubated on ice for 45 min in dark in order to asses viable and non‐viable cells, and then flow cytometry analysis was carried out.

In data set [5] the test system is HeLa cells. Kind of data set: Mitochondrial ROS production by DHR staining, flow cytometry. It is filed as cell-based, human. The conditions noted are these: 50 μM, compared with 13 a. As for the experimental part: as §3, §4
Data set [6] relates to HeLa cells. Briefly: Cell viability by 7-AAD co-staining, flow cytometry. It is filed as cell-based, human. As to conditions: 1 and 50 μM, 24 h. The protocol:
as §3, §4

The mark [7] stands for this setting: 0.1 Hz stimulation, read-out: Tonic Block IC50 at 0.1 Hz.
Setting [8] is: 10 Hz stimulation, read-out: Phasic Block IC50 at 10 Hz.

`Cc1cccc(C)c1NC(=O)CC(C)NCc1ccc2ccccc2c1` (stereo not drawn) (as salt: hydrochloride) [13 b, N‐(2,6‐Dimethylphenyl)‐3‐[(naphthalen‐2‐ylmethyl)amino]butanamide] gave a melting point of 199 to 201 °C.
Regarding `Cc1cccc(C)c1OCCC(C)NCc1ccc2ccccc2c1` (stereo not drawn) [17 b, N‐[(Naphthalen‐2‐yl)methyl]‐4‐[(2,6‐dimethyl)phenoxy]butan‐2‐amine], in data set [1], the Papp A→B at 120 min, 100 µM was determined as 49.6 ×10⁻⁶ cm/s and the Papp B→A at 120 min, 100 µM is 199 ×10⁻⁶ cm/s. In addition, in the data set with P-gp, the efflux ratio at 120 min, 100 µM came out at 4. The “nH (slope factor), tonic block” value at hNav1.4 [2] (0.1 Hz stimulation) came out at 0.9±0.1. In addition, the IC50 on hNav1.4 [2] (setting [7]) is 88 ± 11 µM. The “nH (slope factor), phasic block” value on hNav1.4 [2] (10 Hz stimulation) was 1.1±0.1. Besides, at hNav1.4 [2] (setting [8]), the IC50 was determined as 8.8 ± 0.6 µM. In addition, at hNav1.4 [2], the “TB/PB (ratio IC50 tonic block/IC50 phasic block)” value was 10.
With `Cc1cccc(C)c1OCC(C)N` (stereo not drawn) [mexiletine], on hNav1.4 [3] (0.1 Hz stimulation), the “nH (slope factor), tonic block” value is on record as 1.2±0.1. Further, the results for the IC50 at hNav1.4 [3] (setting [7]) and on hNav1.4 [3] (setting [8]) were 256 ± 25 µM and 46 ± 5 µM, respectively. Moreover, the “nH (slope factor), phasic block” value at hNav1.4 [3] (10 Hz stimulation) is reported as 0.9±0.1.
Turning to `Cc1cccc(C)c1OCCC(C)NCc1cccc2ccccc12` (stereo not drawn) [17 a, N‐[(Naphthalen‐1‐yl)methyl]‐4‐[(2,6‐dimethyl)phenoxy]butan‐2‐amine], the “percentage of ROS producing cells related to untreated cells (% DCF (+) cells)” value in the data set on HeLa cells [4] (1 μM, 6 h exposure) is reported as “no significant effects”; in the data set with HeLa cells [4] (50 μM, 6 h exposure), “significant cytoprotective effect”; in the data set with HeLa cells [4] (24 h exposure, regardless of concentrations (1 and 50 μM)), “prominent cytoprotective effect”. Further, the “ROS production related to untreated cells (DCF fluorescence median)” value with HeLa cells [4] (50 μM, 24 h exposure) is roughly 3 fold. In addition, the “mitochondrial ROS levels (DHR)” value with HeLa cells [5] is reported as “lower ROS levels”. The “percentage of mitochondrial ROS producing cells (DHR)” value in the data set on HeLa cells [5] is recorded as “lower percentage of ROS producing cells”. The Papp A→B at 120 min, 100 µM in data set [1] came to 25.9 ×10⁻⁶ cm/s. Also, the Papp B→A at 120 min, 100 µM in data set [1] was 180 ×10⁻⁶ cm/s. The efflux ratio at 120 min, 100 µM in the data set with P-gp came to 7.1. Further, the “nH (slope factor), tonic block” value at hNav1.4 [2] (0.1 Hz stimulation) stood at 1.2±0.2. Moreover, the IC50 at hNav1.4 [2] (setting [7]) was determined as 1080 ± 150 µM; on hNav1.4 [2] (setting [8]) it was 57 ± 8 µM. Also, on hNav1.4 [2] (10 Hz stimulation), the “nH (slope factor), phasic block” value was 0.8±0.1. In addition, on hNav1.4 [2] (10 Hz, relative to To042), the “fold higher IC50 value at 10 Hz than To042” value is 6 fold. The “TB/PB (ratio IC50 tonic block/IC50 phasic block)” value at hNav1.4 [2] stood at 18.9. The “cellular viability (7-AAD positive cells untreated related)” value with HeLa cells [6] is on record as “not affected”.
Consider `Cc1cccc(C)c1NC(=O)C(C)N` (stereo not drawn) [tocainide], for which the Papp A→B at 120 min, 100 µM in data set [1] is 49.6 ×10⁻⁶ cm/s. The Papp B→A at 120 min, 100 µM in data set [1] came to 196 ×10⁻⁶ cm/s. Besides, the efflux ratio at 120 min, 100 µM in the data set with P-gp turned out to be 3.9. Moreover, on hNav1.4 [3] (0.1 Hz stimulation), the “nH (slope factor), tonic block” value is recorded as 1.0±0.1. Moreover, the IC50 at hNav1.4 [3] (setting [7]) was 700 ± 70 µM; on hNav1.4 [3] (setting [8]), 182 ± 24 µM. Moreover, at hNav1.4 [3] (10 Hz stimulation), the “nH (slope factor), phasic block” value is listed as 1.1±0.2. Also, on hNav1.4 [3] (use-dependence), the “TB/PB (ratio IC50 tonic block/IC50 phasic block)” value is given as 3.8.
For the compound `Cc1cccc(C)c1OCCC(C)NCc1ccc2ccccc2c1` (stereo not drawn) (as salt: hydrochloride) [17 b, N‐[(Naphthalen‐2‐yl)methyl]‐4‐[(2,6‐dimethyl)phenoxy]butan‐2‐amine], the melting point was in the range of 178 to 179 °C.
For `Cc1cccc(C)c1NC(=O)CC(C)NCc1cccc2ccccc12` (stereo not drawn) [13 a, N‐(2,6‐Dimethylphenyl)‐3‐[(naphthalen‐1‐ylmethyl)amino]butanamide], in data set [1], the Papp A→B at 120 min, 100 µM came to 56.6 ×10⁻⁶ cm/s and the Papp B→A at 120 min, 100 µM was 223 ×10⁻⁶ cm/s. In addition, at hNav1.4 [3] (0.1 Hz stimulation), the “nH (slope factor), tonic block” value is recorded as 1.3±0.1. The “nH (slope factor), phasic block” value at hNav1.4 [3] (10 Hz stimulation) is on record as 0.8±0.1.
Compound `Cc1cccc(C)c1OCCC(C)NCc1cccc2ccccc12` (stereo not drawn) (as salt: hydrochloride) [17 a, N‐[(Naphthalen‐1‐yl)methyl]‐4‐[(2,6‐dimethyl)phenoxy]butan‐2‐amine] returned a melting point of 183 to 184 °C.
As for `Cc1cccc(C)c1NC(=O)CC(C)NCc1ccc2ccccc2c1` (stereo not drawn) [13 b, N‐(2,6‐Dimethylphenyl)‐3‐[(naphthalen‐2‐ylmethyl)amino]butanamide], the Papp A→B at 120 min, 100 µM in data set [1] worked out at 43.8 ×10⁻⁶ cm/s. Also, the Papp B→A at 120 min, 100 µM in data set [1] is 216 ×10⁻⁶ cm/s. Moreover, the efflux ratio at 120 min, 100 µM with P-gp worked out at 4.9. Further, the “nH (slope factor), tonic block” value on hNav1.4 [2] (0.1 Hz stimulation) worked out at 1.1±0.1. Moreover, the IC50 was found to be 147 ± 12 µM at hNav1.4 [2] (setting [7]) and 14 ± 1.8 µM at hNav1.4 [2] (setting [8]). The “nH (slope factor), phasic block” value at hNav1.4 [2] (10 Hz stimulation) came out at 0.8±0.1. On hNav1.4 [2], the “TB/PB (ratio IC50 tonic block/IC50 phasic block)” value stood at 10.5.
